For this experiment, the system named is Plasmopara viticola. Put plainly: Persistency against peronospora of grapevine caused by Plasmopara viticola (potted grapevines, inoculation 3 days after spraying). The experiment is classed as in vivo. The following applies: grapevine Müller-Thurgau, inoculated 3 days after treatment. The procedure:
The active compounds, separately or together, were formulated as a stock solution comprising 0.25% by weight of active compound in acetone or DMSO. 1% by weight of the emulsifier Uniperol® EL (wetting agent having emulsifying and dispersing action based on ethoxylated alkylphenols) was added to the solution, and the mixture was diluted with water to the desired concentration.
Use example: Persistency against peronospora of grapevine caused by Plasmopara viticola.
Leaves of potted grapevines of the cultivar “Müller-Thurgau” were sprayed to run off point with an aqueous suspension having the concentration of active compound stated below. To be able to assess the persistency of the substances, the plants were, after the spray coating had dried on, placed in a greenhouse for 3 days. Only then were the leaves inoculated with an aqueous zoospore suspension of Plasmopara viticola. The grapevines were then initially placed in a water-vapor-saturated chamber at 24° C. for 48 hours and then in a greenhouse at temperatures between 20 and 30° C. for 5 days. After this period of time, the plants were, to promote sporangiophore eruption, again placed in a humid chamber for 16 hours. The extent of the development of the infection on the undersides of the leaves was then determined visually.
for evaluation, the visually determined values for the percentages of infected leaf area were converted into efficacies in. % of the untreated control.
The efficacy (E) is calculated as follows using Abbot's formula: E=(1−α/β)·100 • α corresponds to the fungal infection of the treated plants in % and • β corresponds to the fungal infection of the untreated (control) plants in %
An efficacy of 0 means that the infection level of the treated plants corresponds to that of the untreated control plants; an efficacy of 100 means that the treated plants were not infected.
The expected efficacies of the active compound mixtures are determined using Colby's formula [R. S. Colby, Weeds 15, 20-22 (1967)] and compared with the observed efficacies. Colby's formula: E=x+y−x·y/100 • E expected efficacy, expressed in % of the untreated control, when using the mixture of the active compounds A and B at the concentrations a and b • x efficacy, expressed in % of the untreated control, when using active compound A at a concentration of a
y efficacy, expressed in % of the untreated control, when using active compound B at a concentration of b

The mark [1] stands for this setting: 0.375 ppm active compound in the spray liquor.
The mark [2] stands for this setting: 0.75 ppm active compound in the spray liquor.
[3] abbreviates: 1.5 ppm active compound in the spray liquor.
The mark [4] stands for this setting: 3 ppm active compound in the spray liquor.
Where [5] appears, read: 6 ppm active compound in the spray liquor.

The source of these data is patent US20050222229A1, “Fungicidal mixtures” (priority 2002, published 2005).

Each structure is given as a SMILES string.

As for `N#Cc1sc2c(=O)c3ccccc3c(=O)c=2sc1C#N` [II, dithianon], the “Efficacy in % of the untreated control” value stood at 0% (3.75 ppm active compound in the spray liquor), 20% (7.5 ppm active compound in the spray liquor) and 32% (15 ppm active compound in the spray liquor).
For the compound `CSC1=N[C@@](C)(c2ccccc2)C(=O)N1Nc1ccccc1` [Ia, fenamidone], the “Efficacy in % of the untreated control” value under setting [1] came out at 66%; the “Efficacy in % of the untreated control” value under setting [2] amounted to 77%; the “Efficacy in % of the untreated control” value under setting [3] was 93%; the “Efficacy in % of the untreated control” value under setting [4] worked out at 89%; the “Efficacy in % of the untreated control” value under setting [5] was 94%.
Consider `CC1(c2ccc(Oc3ccccc3)cc2)OC(=O)N(Nc2ccccc2)C1=O` (stereo not shown) [Ib, famoxadone], for which the “Efficacy in % of the untreated control” value stood at 0% under setting [1]; 77% under setting [2]; 83% under setting [3]; 89% under setting [4]; 89% under setting [5].
